# Experimental data: publication PMC13211308, “Chemical genetics reveals Leishmania KKT2 and CRK9 kinase activity is required for cell cycle progression” (PLOS Pathogens, 2026)
# Target: T1, rCLK1 (recombinant CLK1, KKT10) (Leishmania mexicana, UniProt E9AMP2)
# T1 construct: gene LMXM_09_0400
# T1 sequence (E9AMP2 1-422): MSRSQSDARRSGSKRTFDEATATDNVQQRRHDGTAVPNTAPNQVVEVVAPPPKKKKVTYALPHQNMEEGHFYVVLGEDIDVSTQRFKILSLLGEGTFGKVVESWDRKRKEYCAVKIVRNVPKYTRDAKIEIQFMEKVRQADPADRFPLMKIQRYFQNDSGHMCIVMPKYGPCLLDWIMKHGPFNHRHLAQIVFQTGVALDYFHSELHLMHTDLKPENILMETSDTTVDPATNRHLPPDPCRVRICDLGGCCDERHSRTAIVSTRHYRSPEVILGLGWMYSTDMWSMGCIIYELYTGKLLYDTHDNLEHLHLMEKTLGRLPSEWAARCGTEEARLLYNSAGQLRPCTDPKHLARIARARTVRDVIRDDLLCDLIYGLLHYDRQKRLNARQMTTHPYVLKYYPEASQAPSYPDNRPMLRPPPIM
# Conditions: 1 mM ATP, 5 mM MgCl2, 1 mM MnCl2, pH 7.5, 2 h, 37 °C
compound,measurement,value
Nc1ncnc2c1ncn2[C@@H]1O[C@H](COP(=O)(O)OP(=O)(O)OP(=O)(O)O)[C@@H](O)[C@H]1O [ATP],autophosphorylation by intact mass spectrometry,"Following incubation with ATP, rCLK1 exhibited three distinct phosphorylation states"
